44 molecules from patent US11021475B2, “Amide-substituted heterocyclic compounds useful as modulators of IL-12, IL-23 and/or IFN alpha responses” (Bristol-Myers Squibb Company, priority 2012, dated 2021) can be followed below.

Test [1] relates to IFNα stimulated Kit225 T cells (STAT-dependent luciferase reporter). The test can be described thus: Kit225 T cell assay, IFNα-stimulated STAT-dependent luciferase reporter. It is filed as cell-based, human. Conditions: 200 U/mL human recombinant IFNα, 5-6 hours, read-out: IFNα Kit225 Reporter (IC50). How it is done: (§1) Kit225 T cells with a stably-integrated STAT-dependent luciferase reporter were plated in RPMI (Gibco) containing 10% heat-inactivated FBS (Gibco) and 100 U/mL PenStrep (Gibco). The cells were then stimulated with either 20 ng/mL human recombinant IL-23 or 200 U/mL human recombinant IFNα (PBL InterferonSource) for 5-6 hours. Luciferase expression was measured using the STEADY-GLO® Luciferase Assay System (Promega) according to the manufacturer's instructions. Inhibition data were calculated by comparison to no inhibitor control wells for 0% inhibition and non-stimulated control wells for 100% inhibition.

Test [2] has as its system IL-23 stimulated Kit225 T cells (STAT-dependent luciferase reporter). The test can be described thus: Kit225 T cell assay, IL-23-stimulated STAT-dependent luciferase reporter. It is filed as cell-based, human. As to conditions: 20 ng/mL human recombinant IL-23, 5-6 hours, read-out: IL-23 Kit225 Reporter (IC50). How it is done: as §1
A general note: Reporter assays use an easily measured gene product as a stand-in for the process of interest.

Like-named read-outs stand apart in the source and are kept apart here.

By IC50 is commonly meant the concentration at which inhibition is half-maximal. As for `CNC(=O)c1nnc(NC(=O)C2CC2)cc1Nc1cccc(-c2ncnn2C)c1OC` [Example 179], the figures for the IC50 in test [1] and in test [2] were 0.14 µM and 0.45 µM, respectively.

Regarding `CCn1cnc(-c2cccc(Nc3cc(Nc4ccccn4)nnc3C(=O)NC)c2OC)n1` [Example 177], the results for the IC50 in test [1] and in test [2] were 0.00163 µM and 0.00152 µM, respectively.

Consider `CNC(=O)c1nnc(NC(=O)C2CC2)cc1Nc1ccccc1S(C)(=O)=O` [Example 17], for which the results for the IC50 in test [1] and in test [2] were 0.36 µM and 0.57 µM, respectively.

For the molecule `CNC(=O)c1nnc(Nc2cc(C(C)(C)O)ccn2)cc1Nc1cccc(-c2ncn(C)n2)c1OC` [Example 120], the IC50 in test [1] came to 0.01 µM; in test [2], 0.06 µM.

Turning to `CNC(=O)c1nnc(NC(=O)C2CC2)cc1Nc1cccc(-c2nc(C)cs2)c1OC` [Example 95], the IC50 stood at 0.02 µM in test [1] and 0.1 µM in test [2].

Consider `CNC(=O)c1nnc(Nc2cc(F)ccn2)cc1Nc1ccccc1S(C)(=O)=O` [Example 9], for which the IC50 in test [1] amounted to 0.09 µM; in test [2] it was 0.06 µM.

Consider `CNC(=O)c1nnc(Nc2ccc(F)cn2)cc1Nc1cccc(-c2ccccn2)c1OC` [Example 77], for which the IC50 amounted to 0.02 µM in test [1] and 0.07 µM in test [2].

Turning to `CNC(=O)c1nnc(Nc2ccnc(C)n2)cc1Nc1cccc(-c2ncccn2)c1OC` [Example 158], the IC50 in test [1] stood at 0.02 µM; in test [2] it was 0.01 µM.

For `CNC(=O)c1nnc(Nc2cc(C)n(C)n2)cc1Nc1cccc(-c2cscn2)c1OC` [Example 131], the IC50 in test [1] and in test [2] was 0.02 µM throughout.

Take `CCc1cc(Nc2cc(Nc3cccc(-c4ncn(C)n4)c3OC)c(C(=O)NC)nn2)ncn1` [Example 68]: the IC50 in test [1] worked out at 0.00345 µM; in test [2], 0.00656 µM.

Regarding `CS(=O)(=O)c1ccccc1Nc1cc(Nc2ccc(F)cn2)nnc1C(N)=O` [Example 2], the IC50 stood at 0.05 µM in test [1] and 0.14 µM in test [2].

On to `CCc1ccnc(Nc2cc(Nc3cccc(-c4ncn(C)n4)c3OC)c(C(=O)NC)nn2)c1` [Example 128], for which the values for the IC50 in test [1] and in test [2] were 0.00317 µM and 0.00608 µM, respectively.

As to `CNC(=O)c1nnc(Nc2cc(C)c(C#N)cn2)cc1Nc1ccccc1S(C)(=O)=O` [Example 26], the IC50 is 0.05 µM in test [1] and 0.06 µM in test [2].

For the molecule `CNC(=O)c1nnc(Nc2cc(C)n(C)n2)cc1Nc1cccc(-c2cnc(C)s2)c1OC` [Example 161], the IC50 in test [1] and in test [2] was 0.21 µM in each case.

With `CNC(=O)c1nnc(Nc2cc(OC)ccn2)cc1Nc1ccccc1S(C)(=O)=O` [Example 38], the results for the IC50 in test [1] and in test [2] were 0.1 µM and 0.17 µM, respectively.

On to `[2H]C([2H])([2H])NC(=O)c1nnc(NC(=O)C2CC2)cc1Nc1cccc(-c2cc[nH]n2)c1OC` [Example 195], for which the IC50 in test [1] (KIT225) turned out to be 0.02 µM; in test [2] (KIT225), 0.01 µM.

For the molecule `CNC(=O)c1nnc(Nc2ccccn2)cc1Nc1cccc(C(=O)NCC(F)(F)F)c1OC` [Example 171], the IC50 in test [1] amounted to 0.13 µM; in test [2], 0.05 µM.

Regarding `CNC(=O)c1nnc(Nc2ccccn2)cc1Nc1cccc(-c2ccn(C)n2)c1OC` [Example 58], the IC50 in test [1] is 0.00859 µM; in test [2], 0.02 µM.

Take `CNC(=O)c1nnc(Nc2cc(C)n(C)n2)cc1Nc1cccc(-c2nccs2)c1OC` [Example 107]: the IC50 is 0.14 µM in test [1] and 0.09 µM in test [2].

Consider `CNC(=O)c1nnc(Nc2cc(C)ccn2)cc1Nc1ccccc1S(C)(=O)=O` [Example 14], for which the IC50 in test [1] and in test [2] was 0.01 µM throughout.

Turning to `CNC(=O)c1nnc(Nc2ccccn2)cc1Nc1cccc(-c2ncn(C)n2)c1SC` [Example 205], the IC50 is 0.05 µM in test [1] (KIT225) and 0.14 µM in test [2] (KIT225).

In the case of `CNC(=O)c1nnc(NC(=O)C2CC2)cc1Nc1cccc(-c2cn(C)nn2)c1OC` [Example 138], the IC50 in test [1] and in test [2] was 0.03 µM throughout.

For the molecule `CNC(=O)c1nnc(NC(=O)C2CC2)cc1Nc1cccc(-c2cscn2)c1OC` [Example 126], the IC50 was 0.03 µM in test [1] and 0.04 µM in test [2].

Take `CNC(=O)c1nnc(Nc2ccc(OC)cn2)cc1Nc1ccccc1S(C)(=O)=O` [Example 22]: the IC50 in test [1] was found to be 0.1 µM; in test [2], 0.16 µM.

With `CNC(=O)c1nnc(Nc2ccc(F)cn2)cc1Nc1cccc(-c2ccncn2)c1OC` [Example 89], the IC50 in test [1] was 0.00218 µM; in test [2], 0.02 µM.

Consider `CNC(=O)c1nnc(Nc2ccc(F)cn2)cc1Nc1ccccc1S(C)(=O)=O` [Example 3], for which the IC50 came to 0.06 µM in test [1] and 0.1 µM in test [2].

Regarding `CNC(=O)c1nnc(Nc2cc(C)c(F)cn2)cc1Nc1cccc(-c2nccs2)c1OC` [Example 106], the IC50 in test [1] and in test [2] was 0.08 µM throughout.

In the case of `C#Cc1cccc(Nc2cc(NC(=O)C3CC3)nnc2C(=O)NC)c1OC` [Example 139], the results for the IC50 in test [1] and in test [2] were 0.15 µM and 0.21 µM, respectively.

For `CNC(=O)c1nnc(Nc2cc(C)n(C)n2)cc1Nc1cccc(-c2nnc(C)o2)c1OC` [Example 152], the IC50 was found to be 0.03 µM in test [1] and 0.13 µM in test [2].

Take `CNC(=O)c1nnc(Nc2cc(C)nc(C)n2)cc1Nc1ccccc1S(C)(=O)=O` [Example 7]: the IC50 was determined as 0.05 µM in test [1] and 0.07 µM in test [2].

For the molecule `CNC(=O)c1nnc(Nc2cc(OC(C)C)ncn2)cc1Nc1ccccc1S(C)(=O)=O` [Example 45], the IC50 is 0.31 µM in test [1] and 0.42 µM in test [2].

For the molecule `CNC(=O)c1nnc(Nc2ccc(F)cn2)cc1Nc1ccccc1S(C)(=O)=O` [Example 6], the results for the IC50 in test [1] and in test [2] were 0.11 µM and 0.19 µM, respectively.

With `CCOc1ccnc(Nc2cc(Nc3cccc(-c4ncn(C)n4)c3OC)c(C(=O)NC)nn2)c1` [Example 127], the IC50 in test [1] amounted to 0.02 µM; in test [2], 0.03 µM.

As to `CNC(=O)c1nnc(NC(=O)C2CC2)cc1Nc1cccc(-c2ncn(C)n2)c1OC` [Example 52], the IC50 was 0.00921 µM in test [1] and 0.01 µM in test [2].

Consider `CNC(=O)c1nnc(Nc2cccc(C)n2)cc1Nc1ccccc1S(C)(=O)=O` [Example 30], for which the IC50 in test [1] is 0.01 µM; in test [2], 0.02 µM.

With `CNC(=O)c1nnc(Nc2ccc(F)cn2)cc1Nc1cccc(-c2cnccn2)c1OC` [Example 74], the results for the IC50 in test [1] and in test [2] were 0.00515 µM and 0.02 µM, respectively.

In the case of `CNC(=O)c1nnc(NC(=O)C2CC2)cc1Nc1cccc(-c2cccnn2)c1OC` [Example 78], the IC50 in test [2] stood at 0.32 µM.

As for `CNC(=O)c1nnc(NC(=O)C2CC2)cc1Nc1cccc(-c2cnn(CC(F)F)c2)c1OC` [Example 187], the IC50 in test [2] came out at 0.05 µM.

Regarding `CNC(=O)c1nnc(NC(=O)C2CC2)cc1Nc1cccc(-c2ccncn2)c1OC` [Example 86], the IC50 in test [2] stood at 0.03 µM.

Consider `CNC(=O)c1nnc(NC(=O)C2CC2)cc1Nc1cccc(-c2cnccn2)c1OC` [Example 75], for which the IC50 in test [2] worked out at 0.07 µM.

Regarding `CNC(=O)c1nnc(Nc2cc(C)n(C)n2)cc1Nc1cccc(-c2ncc(C)s2)c1OC` [Example 104], the IC50 in test [1] was determined as 0.04 µM.

For the molecule `CNC(=O)c1nnc(NC(=O)C2CC2)cc1Nc1cccc(-c2ccccn2)c1OC` [Example 72], in test [2], the IC50 is 0.13 µM.

As for `CNC(=O)c1nnc(NC(=O)C2CC2)cc1Nc1cccc(-c2ncccn2)c1OC` [Example 70], the IC50 in test [2] amounted to 0.02 µM.

As for `CNC(=O)c1nnc(NC(=O)C2CC2)cc1Nc1cccc(-c2nccc(C)n2)c1OC` [Example 82], the IC50 in test [2] came out at 0.11 µM.
